Data as given in a compilation of properties of binary mixtures (doi:10.1039/b315616h).

Assay: xn = mol fraction of the nth substance listed
Settings: 101.3 kPa, x2 = 0.865

CCCCCC[n+]1ccn(C)c1.F[B-](F)(F)F + CCCCCO
Settings | viscosity [mPa·s]
314.94 K | 5.47
315.04 K | 5.22
315.1 K | 5.14
315.15 K | 5.09
315.2 K | 5.04
315.24 K | 5
315.3 K | 4.96
315.44 K | 4.87
315.54 K | 4.83
315.58 K | 4.8
315.71 K | 4.76
315.75 K | 4.74
315.88 K | 4.7
315.91 K | 4.69
315.94 K | 4.68
315.98 K | 4.67
316.07 K | 4.64
316.22 K | 4.6
316.42 K | 4.54
316.73 K | 4.46
317.23 K | 4.35
319.34 K | 3.98
321.14 K | 3.74
323.16 K | 3.51
325.69 K | 3.262
328.15 K | 3.047
